The source of these data is US9636323B2, “Method of treating cancer that overexpresses TopBP1” (Baylor College of Medicine, priority 2014, dated 2017).

Structures are written as SMILES.

The subject of assay [1] is TopBP1-BRCT7/8 binding to pS1159 peptide. Put plainly: pS1159 peptide binding assay (streptavidin Sepharose pulldown). The following applies: FIG. 1f. As for the experimental part: The GST fusion proteins in Escherichia coli strain BL21 were induced by 0.1 mM IPTG (isopropyl-β-D-thiogalactopyranoside) and purified according to the standard protocol. The GST portion on GST-TopBP1-BRCT7/8 was excised by Pre-Scission protease (Pharmacia). Two purified (>98%) biotin conjugated peptides were synthesized from Sigma Genosys. The peptide sequence is derived from the surrounding sequence of TopBP1 S1159: pP, Btn-[…]pSer^1159NLQWPS and nP, Btn-[…]. Purified TopBP1-BRCT7/8 (2 μg) was incubated with compounds in NETN-A buffer (50 mM NaCl, 1 mM EDTA, 20 mM Tris, 0.5% NP-40) at 4° C. for 3 h with constant rotation. Then 2 μg of purified pP or nP peptides were added and rotated for another 3 h at 4° C. The biotin-conjugated peptides were then pulled down with streptavidin-Sepharose (Amersham). The beads were washed six times with NETN-B buffer (100 mM NaCl, 1 mM EDTA, 0.2 mM phenylmethylsulfonyl fluoride) and then subjected to sodium dodecyl sulfate-polyacrylamide gel electrophoresis (SDS-PAGE) and analyzed by Western blotting with anti-TopBP1 antibody (1:1000, BL893, Bethyl Laboratories).

For assay [2], the system named is TopBP1-BRCT7/8 binding to p53(DBD). The assay is described as follows: GST-p53(DBD) pulldown assay. The note with it: FIG. 1g. As for the experimental part:
Purified TopBP1-BRCT7/8 (2 μg) was incubated with compounds in NETN-A buffer as above at 4° C. for 3 h with constant rotation. Then purified GST-p53-DBD or GST (2 μg) were added and rotated for another 3 h at 4° C. GST-p53-DBD was then pulled down with glutathione-Sepharose. The beads were washed six times with NETN-B buffer and then subjected to SDS-PAGE analysis.

In the case of `O=C(O)CN(CC(=O)O)Cc1cc2c(cc1O)Oc1cc(O)c(CN(CC(=O)O)CC(=O)O)cc1C21OC(=O)c2ccccc21` [Calcein, calcein], in assay [1], the “concentrations at which TopBP1/pS1159 interaction was blocked” value is “submicromolar”. Also, the “effective amount of Calcein that needs to be present” value in assay [1] (pS1159 peptide binding) and in assay [2] (GST-p53(DBD) pulldown) was 60 to 300 nM each time. Moreover, the “concentrations at which TopBP1/p53(DBD) interaction was blocked” value in assay [2] was “submicromolar”.
